Assays:
TRPC5 channel [1] = molecular target: T1, TRPC5 channel (Homo sapiens, UniProt Q9UL62); experiment: Whole-cell patch clamp experiments, TRPC5 current activated by LaCl3 in TRPC5-expressing HEK293 TREx cells; format: cell-based; details: Table 3, block of TRPC5 current in continued presence of LaCl3, IC50 estimated
T1 construct: expressed in transfected cells; host or cells: HEK293/TREx (Invitrogen), stably transfected, induced with tetracycline
T1 sequence (Q9UL62 1-973): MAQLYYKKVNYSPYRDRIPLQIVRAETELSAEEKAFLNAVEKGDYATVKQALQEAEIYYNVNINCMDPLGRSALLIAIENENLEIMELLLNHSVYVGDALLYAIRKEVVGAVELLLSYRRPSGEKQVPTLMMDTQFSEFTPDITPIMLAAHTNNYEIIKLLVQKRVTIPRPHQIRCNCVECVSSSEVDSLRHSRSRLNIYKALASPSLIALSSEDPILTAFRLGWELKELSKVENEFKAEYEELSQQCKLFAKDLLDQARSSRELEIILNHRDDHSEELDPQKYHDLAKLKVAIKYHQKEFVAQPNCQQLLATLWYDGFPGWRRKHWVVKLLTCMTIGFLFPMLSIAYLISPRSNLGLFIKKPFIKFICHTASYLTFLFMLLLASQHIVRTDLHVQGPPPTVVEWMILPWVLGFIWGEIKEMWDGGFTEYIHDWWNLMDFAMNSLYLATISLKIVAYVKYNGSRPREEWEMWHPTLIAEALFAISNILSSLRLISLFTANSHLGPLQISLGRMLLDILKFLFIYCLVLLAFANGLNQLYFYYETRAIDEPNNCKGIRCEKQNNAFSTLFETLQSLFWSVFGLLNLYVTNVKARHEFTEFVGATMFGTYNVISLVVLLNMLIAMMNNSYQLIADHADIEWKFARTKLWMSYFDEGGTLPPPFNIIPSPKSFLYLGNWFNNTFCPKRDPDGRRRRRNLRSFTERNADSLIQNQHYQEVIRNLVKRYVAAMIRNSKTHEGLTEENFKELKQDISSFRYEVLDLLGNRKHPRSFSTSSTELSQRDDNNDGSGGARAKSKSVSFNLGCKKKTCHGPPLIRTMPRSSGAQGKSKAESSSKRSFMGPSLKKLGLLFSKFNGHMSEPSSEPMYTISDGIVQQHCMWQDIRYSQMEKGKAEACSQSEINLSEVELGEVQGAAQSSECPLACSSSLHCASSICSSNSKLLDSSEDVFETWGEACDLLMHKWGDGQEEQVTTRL
Text: Patch clamp experiments permit the detection of currents through the TRPC5 channel in the cell line described above. In normal whole-cell patch clamp recordings, a glass electrode is brought into contact with a single cell and a high-resistance (gigaohm) seal is established with the cell membrane. The membrane is then ruptured to achieve the whole-cell configuration, permitting control of the voltage of the cell membrane and measurement of currents flowing across the membrane using the amplifier attached to the electrode and resulting in the replacement of cytoplasm with the pipette solution. A perfusion system permits control of the extracellular solution, including the addition of blockers and activators of the current. The current can be activated by including 1.4 μM free Ca^2+ in the pipette (intracellular) solution, and 80 μM LaCl3 in the extracellular solution.
TRPC5 cells were induced 20-48 hours, removed from growth plates, and replated at low density (to attain good single-cell physical separation) on glass coverslips for measurement. In some cases, cells were grown in low density overnight on glass coverslips. Patch clamp recordings were made in the whole-cell mode with a holding potential of −40 mV. Every 5 seconds, a voltage ramp was applied from −120 to +100 mV, 400 ms in duration. Currents elicited were quantified at −80 mV and +80 mV. The internal solution consisted of 140 mM cesium aspartate, 10 mM HEDTA, 2 mM CaCl2, 2.27 mM MgCl2 and 10 mM HEPES, pH 7.2, with 1,400 nM calculated free Ca^2+. The external solution consisted of 150 mM NaCl, 4.5 mM KCl, 1 mM MgCl2, 2 mM CaCl2, 10 mM HEPES, 10 mM glucose, 1 mM EGTA, pH 7.4. Upon addition of LaCl3, TRPC5 current was induced only in TRPC5-expressing cells and not in parental HEK293 TREx cells. Removal of the LaCl3 stimulus causes most of the current to go away. Potential blockers were tested for ability to block both inward and outward currents in the continued presence of LaCl3.
IC50 of a compound of Formula (I) was estimated by testing the compound at 5 μM and 500 nM. […] IC50 for a compound of Formula (I) between 500 nM and 5 μM was similarly estimated.

TRPC5 channel [2] = molecular target: T1, TRPC5 channel; experiment: High throughput screening assay: Fluo4 cell-based fluorescence assay of intracellular Ca2+ rise in HEK293/TREx cells inducibly expressing TRPC5; details: Table 2, Ca2+ influx, 14 mM Ca2+
Text: The assay depended on detection of the rise in intracellular Ca2+ concentration ([Ca2+]i) following channel activation in cells inducibly expressing the TRPC5 channel. Ca2+ rise was quantified with the use of fluorescent Ca2+ indicators that were loaded into cells and thereafter indicated the [Ca2+]i Ca2+ influx followed activation of the TRPC5 channel. Compounds inhibiting the [Ca2+]i rise were considered hits for further investigation.
The commercially available HEK293/TREx line (Invitrogen) was stably transfected with a TRPC5 construct and screened by conventional calcium imaging to find clones with TRPC5 expression following stimulation with 1 μg/ml tetracycline. These cells were maintained in the growth medium recommended by the manufacturer supplemented with 100 μg/ml hygromycin to promote retention of the TRPC5 construct. After growing to near confluency, cells were plated at a density of ˜35,000 cells/well in 384 well CellBind plates (Corning) in the presence of 1 μg/ml tetracycline, and allowed to grow for 20-30 hrs. A nearly confluent monolayer resulted. Cells were then loaded with Ca2+ dye: Fura-2/AM or Fluo4/AM was added to the wells to a final concentration of 4 μM or 0.5 μM, respectively, and incubated for 80 min or 60 min, respectively, at room temperature. Supernatant was then removed from the cells by inverting plates with a sharp flick, and 25 μl Hank's Balanced Salt Solution (HBSS; 0.185 g/l D-glucose, 0.9767 g/l MgS04 (anhydrous), 0.4 g/l KCl, 0.06 g/l KH2PO4 (anhydrous), 0.35 g/l NaHCO3, 8.0 g/l NaCl, and 0.04788 g/l Na2HPO4 (anhydrous); pH 7.4) was then added to each well. Following ˜0.5 hour for recovery from loading, cells were assayed using the Hamamatsu FDSS 6000 system, which permitted illumination alternately at 340 nm and 380 nm for Fura-2 experiments, or at 485 nm for Fluo4 experiments. Frames were acquired at a rate of 0.2 Hz. During the assay, the plates were continuously vortexed, with pipette mixing of wells following addition of each reagent. For the screening assay, 26 μl of a diluted compound stock (at 50 μM) was added to each well for 2 minutes following the collection of a short (4 frame) baseline. 13 μl 62 mM high-Ca2+ Ringer solution (4.17 ml of normal ringer (with 2 mM Ca2+) plus 5.83 ml of isotonic calcium ringer (105 mM Ca2+; in this ringer all sodium has been replaced with calcium)) was then added to each well, achieving a final concentration of 14 mM Ca2+ and 10 μM test compound. Data was collected for ˜3 minutes following addition of high Ca2+ Ringer, where the fluorescent intensity (for Fluo4) and the F340/F380 ratio (for Fura-2) were proportional to the [Ca2+]i Negative controls consisted of HEK293/TREx TRPC5 cells exposed to high Ca2+ solution, but no compound. Positive control conditions consisted of addition of 2-APB, a promiscuous blocker of TRPC5 and other channels, to columns 23 and 24 of the plates, to a final concentration of 200 μM. These controls defined a screening window, and “hits” were defined as those compounds inhibiting the fluorescence response by at least 40%. IC50 values were determined for compounds defined as “hits.” The Fluo4 cell-based fluorescence assay was used to determine the intracellular Ca2+ concentration in the presence of varying drug concentration. Final concentrations of compounds tested were 20 μM, 6.667 μM, 2.222 μM, 0.741 μM, 0.247 μM, 0.082 μM, and 0.027 μM. Compounds were tested in triplicate at all concentrations. Standard software was used to fit IC50 curves. […]

With `CCOc1ccc2c(c1Cc1ccc(Cl)cc1)c(=O)n(CCCO)c(=O)n2C` [Compound 11, 5-(4-chlorobenzyl)-6-ethoxy-3-(3-hydroxypropyl)-1-methylquinazoline-2,4(1H,3H)-dione] the IC50 (TRPC5 channel [1]) was 4.2 nM.
In the case of `Cn1c(=O)n(CCCO)c(=O)c2c(Cc3ccc(F)cc3)c(Oc3cccc(OC(F)(F)F)c3)ccc21` [Compound 6, 5-(4-fluorobenzyl)-3-(3-hydroxypropyl)-1-methyl-6-(3-(trifluoromethoxy)phenoxy)quinazoline-2,4(1H,3H)-dione], the IC50 (TRPC5 channel [1]) is reported as 1.77 nM and the IC50 (TRPC5 channel [2]) is reported as 61 nM.
For `Cn1c(=O)n(CCCO)c(=O)c2c(Cc3ccccc3)c(-c3cccc(OC(F)(F)F)c3)ccc21` [Compound 13, 5-benzyl-3-(3-hydroxypropyl)-1-methyl-6-(3-(trifluoromethoxy)phenyl)quinazoline-2,4(1H,3H)-dione], the IC50 (TRPC5 channel [2]) was 31.2 nM.
`CCCOc1ccc2c(c1Cc1ccc(F)cc1)c(=O)n(CCCO)c(=O)n2C` [Compound 8, 5-(4-fluorobenzyl)-3-(3-hydroxypropyl)-1-methyl-6-propoxyquinazoline-2,4(1H,3H)-dione] was tested, and the IC50 (TRPC5 channel [1]) was 2 nM and the IC50 (TRPC5 channel [2]) was 1.71 nM.
`Cn1c(=O)n(CCCO)c(=O)c2c(Cc3ccc(Cl)cc3)c(Oc3cccc(OC(F)(F)F)c3)ccc21` [Compound 4, 5-(4-chlorobenzyl)-3-(3-hydroxypropyl)-1-methyl-6-(3-(trifluoromethoxy)phenoxy)quinazoline-2,4(1H,3H)-dione] was tested, and the IC50 (TRPC5 channel [1]) was 1.52 nM.
Compound `CCCOc1ccc2c(c1Cc1ccc(Cl)cc1)c(=O)n(CCCO)c(=O)n2C` [Compound 10, 5-(4-chlorobenzyl)-3-(3-hydroxypropyl)-1-methyl-6-propoxyquinazoline-2,4(1H,3H)-dione] has an IC50 (TRPC5 channel [1]) of 4.3 nM.
Work on `Cn1c(=O)n(CCCO)c(=O)c2c(Cc3ccccc3)c(Oc3cccc(Cl)c3)ccc21` [Compound 3, 5-benzyl-6-(3-chlorophenoxy)-3-(3-hydroxypropyl)-1-methylquinazoline-2,4(1H,3H)-dione] yielded an IC50 (TRPC5 channel [1]) of 2.1 nM and an IC50 (TRPC5 channel [2]) of 395 nM.
Work on `COc1ccc2c(c1Cc1ccccc1)c(=O)n(CCCO)c(=O)n2C` [Compound 2] yielded an IC50 (TRPC5 channel [2]) of 27 nM.

— patent publication US9745272B2, “Quinazoline-2,4(1 H,3H)-dione derivatives” (Hydra Biosciences, Inc., priority 2014, dated 2017)
